Structures can show the parent of a compound that is named as a salt.
How the values were obtained:
Assay type in all cases: physicochemical
[1] = Hygroscopicity of the solid form
[2] = Stability of the crystalline form versus relative humidity
[3] = Thermal stability of the crystalline form on heating

## C=C1CC[C@H]2[C@@H]3[C@@H](O)[C@H](O)C4C[C@@H](N)CC[C@]4(C)[C@H]3CC[C@]12C (stereo partly drawn) [acetate salt, 3-beta-amino-17-methylene-androstane-6-alpha,7-beta-diol, reference compound]
[1]
  hygroscopicity: hygroscopic

## C=C1CCC2C3C(CC[C@]12C)[C@@]1(C)CC[C@H](N)CC1[C@@H](O)[C@@H]3O.Cl (stereo partly drawn) [form A, 3-beta-amino-17-methylene-androstane-6-alpha,7-beta-diol hydrochloride]
[1]
  hygroscopicity: absence of hygroscopicity
[2]; left for 3 days under a relative humidity above 95%
  form conversion under high relative humidity: converts to form B
[3]
  temperature above which the form decomposes completely: above 280 °C
  temperature at which the form begins to deteriorate chemically: around 240 °C

## C=C1CCC2C3C(CC[C@]12C)[C@@]1(C)CC[C@H](N)CC1[C@@H](O)[C@@H]3O.Cl (stereo partly drawn) [form B, 3-beta-amino-17-methylene-androstane-6-alpha,7-beta-diol hydrochloride]
[2]; crystalline powder, hydrochloride
  relative humidity range in which the crystalline form is stable: above 50 % RH

## C=C1CCC2C3C(CC[C@]12C)[C@@]1(C)CC[C@H](N)CC1[C@@H](O)[C@@H]3O.Cl (stereo partly drawn) [form C, 3-beta-amino-17-methylene-androstane-6-alpha,7-beta-diol hydrochloride]
[3]; conversion of mono-hydrate to anhydrous form D
  temperature above which the form turns into anhydride D by heating: above 60 °C
